Results as given in paper PMC10439952, “JT002, a small molecule inhibitor of the NLRP3 inflammasome for the treatment of autoinflammatory disorders” (Scientific Reports, 2023).

Experiments:
[1] = Plasma JT002 concentrations in mice after a single oral dose; assay type: in vivo, mouse; conditions: single oral dose 25 mg/kg
Experimental: In vivo pharmacodynamics (PD) were evaluated in mice for determination of target engagement as this species is routinely used for assessment of preclinical efficacy. Treatment of fresh, whole blood with LPS plus ATP results in the NLRP3-dependent release of IL-1β, thus providing a robust method for tracking target engagement of NLRP3 inflammasome inhibitors in the circulation after oral dose administration[36],[47]. In vivo target engagement using ex vivo stimulation of blood was evaluated in mice at various times after oral dosing of JT002. For each time point tested, one group of mice received a single oral dose of 25 mg/kg JT002 (n = 8/group) and another group received the vehicle control (n = 8/group). At the time of harvest, blood was collected from each animal and an aliquot removed and processed to plasma for determination of JT002 concentrations. The remaining blood was stimulated ex vivo with LPS plus ATP followed by analysis of IL-1β concentrations (Fig. 3A). […] Consistent with these findings, plasma concentrations of JT002 decreased over time, with mean concentrations of ≥ 4.0 µM through 8 h and a mean concentration of 6 nM at the 24-h sampling (Fig. 3C,D). […]

[2] = target: NLRP3 inflammasome (Homo sapiens, UniProt Q96P20); assay: Inhibition of IL-1β production in LPS + ATP stimulated (canonical) human whole blood; assay type: cell-based; design: host or cells: fresh heparinised human whole blood from healthy volunteers; conditions: read-out: Geo Av IC50, IL-1β
Experimental: Inflammasome activation and whole blood assays were essentially carried out as described earlier. Details can be found in the supplementary information section accompanying this publication. A protocol for blood draws from healthy volunteers and use of the blood in preclinical assays was approved by Western Institutional Review Board, Inc (Puyallup, WA, USA). Informed consent was obtained from each donor prior to the first blood draw.
Cell viability was determined by addition of an equal volume of CellTiter-Glo® 2.0 reagent (Promega) to the remaining cells/supernatant in each well. Intracellular Caspase-1 activity was measured using the Caspase-Glo® assay (Promega) according to the manufacturer’s instructions. The biochemical capsase-1 assay was conducted at Reaction Biology Corporation (Malvern, USA). Human IL-1β, IL-1α, and TNFα and mouse IL-1β were measured in cell culture supernatants using homogeneous time resolved fluorescence assay kits (HTRF, Cisbio, Codolet, France). Human IL-18 was measured in cell culture supernatants using an ELISA kit (R&D Systems, Minneapolis, MN, USA). Plasma IL-1β concentrations were determined by Quantikine® ELISA (R&D Systems, Minneapolis, MN). […]
flagellin, prepared in Opt iMEM and combined with Lipofectamine 2000. […]

Chain of NLRP3 inflammasome (Q96P20 whole entry): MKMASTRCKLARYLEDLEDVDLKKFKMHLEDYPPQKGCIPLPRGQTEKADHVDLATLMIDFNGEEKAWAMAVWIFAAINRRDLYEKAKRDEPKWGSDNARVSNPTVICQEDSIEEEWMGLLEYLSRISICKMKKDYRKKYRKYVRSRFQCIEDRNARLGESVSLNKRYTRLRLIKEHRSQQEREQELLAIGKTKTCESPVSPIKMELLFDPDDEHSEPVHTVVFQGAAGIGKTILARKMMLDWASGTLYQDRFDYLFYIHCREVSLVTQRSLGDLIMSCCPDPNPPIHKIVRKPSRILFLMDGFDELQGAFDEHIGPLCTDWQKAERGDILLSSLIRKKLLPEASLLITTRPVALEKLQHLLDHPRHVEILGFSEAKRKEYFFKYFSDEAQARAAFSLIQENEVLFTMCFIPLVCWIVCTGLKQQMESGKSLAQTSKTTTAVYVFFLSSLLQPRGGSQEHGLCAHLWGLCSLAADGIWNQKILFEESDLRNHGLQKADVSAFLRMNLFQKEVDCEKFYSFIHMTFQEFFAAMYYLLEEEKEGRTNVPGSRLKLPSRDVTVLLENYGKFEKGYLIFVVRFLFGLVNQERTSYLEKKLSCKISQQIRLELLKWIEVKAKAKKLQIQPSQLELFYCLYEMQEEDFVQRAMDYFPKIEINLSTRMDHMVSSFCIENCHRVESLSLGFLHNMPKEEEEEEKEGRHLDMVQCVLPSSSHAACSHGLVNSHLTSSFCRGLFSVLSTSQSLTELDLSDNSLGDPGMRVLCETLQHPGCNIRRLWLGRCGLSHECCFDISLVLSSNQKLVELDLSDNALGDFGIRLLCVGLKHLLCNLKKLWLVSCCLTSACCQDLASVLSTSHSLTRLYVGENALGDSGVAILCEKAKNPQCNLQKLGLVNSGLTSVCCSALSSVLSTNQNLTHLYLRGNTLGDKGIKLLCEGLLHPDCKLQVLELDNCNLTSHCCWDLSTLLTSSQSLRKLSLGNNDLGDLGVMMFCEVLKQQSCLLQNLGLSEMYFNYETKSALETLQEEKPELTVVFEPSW

## CO[C@@H]1COc2c(S(=O)(=O)NC(=O)Nc3c4c(cc5c3CCC5)CCC4)cnn2C1 [JT002]
[1]; male, C57BL/6, mouse, plasma, 24-h sampling
  concentration at 24 h: 6 nM
[1]; through 8 h
  concentration at 24 h: ≥ 4000 nM
[2]
  IC50: 100 nM
